This passage reports IC50 results from patent publication US20230131535A1, “ARYLMETHYLENE AROMATIC COMPOUNDS AS Kv1.3 POTASSIUM SHAKER CHANNEL BLOCKERS” (D. E. Shaw Research, LLC, priority 2019, published 2023).

One assay has as its target T1, hERG channel (Homo sapiens, UniProt Q12809).
T1 construct: expressed in transfected cells
Kind of assay: hERG electrophysiology, automated whole-cell patch clamp (Patchliner). As to conditions: CHO-K1 cells stably expressing hERG, whole cell current, tail current protocol, read-out: hERG_IC50. The class given is cell-based. On the procedure:
Example 68. Evaluation of hERG Activities
This assay is used to evaluate the disclosed compounds' inhibition activities against the hERG channel.
CHO-K1 cells stably expressing hERG were grown in Ham's F-12 Medium with Glutamine containing 10% heat-inactivated FBS, 1% Penicillin/Streptomycin, Hygromycin (100 μg/ml) and G418 (100 μg/ml). Cells were grown in culture flasks at 37° C. in a 5% CO2-humidified incubator.
(§1) The cells were bathed in an extracellular solution containing 140 mM NaCl, 4 mM KCl, 2 mM CaCl2), 1 mM MgCl2, 5 mM Glucose, 10 mM HEPES; pH adjusted to 7.4 with NaOH; 295-305 mOsm. The internal solution contained 50 mM KCl, 10 mM NaCl, 60 mM KF, 20 mM EGTA, 10 mM HEPES; pH adjusted to 7.2 with KOH; 285 mOsm. All compounds were dissolved in DMSO at 30 mM. Compound stock solutions were freshly diluted with external solution to concentrations of 30 nM, 100 nM, 300 nM, 1 μM, 3 μM, 10 μM, 30 μM and 100 μM. The highest content of DMSO (0.3%) was present in 100 μM.
The voltage protocol (see Table 5) was designed to simulate voltage changes during a cardiac action potential with a 300 ms depolarization to +20 mV (analogous to the plateau phase of the cardiac action potential), a repolarization for 300 ms to −50 mV (inducing a tail current) and a final step to the holding potential of −80 mV. The pulse frequency was 0.3 Hz. Control (compound-free) and compound pulse trains for each compound concentration applied contained 70 pulses.
Whole cell current recordings and compound application were enabled by means of an automated patch clamp platform Patchliner (Nanion). EPC 10 patch clamp amplifier (HEKA) along with Patchmaster software (HEKA Elektronik Dr. Schulze GmbH) was used for data acquisition. Data were sampled at 10 kHz without filtering. Increasing compound concentrations were applied consecutively to the same cell without washouts in between.
(§2) AUC and PEAK values were obtained with Patchmaster (HEKA Elektronik Dr. Schulze GmbH). To determine IC50 the last single pulse in the pulse train corresponding to a given compound concentration was used. Obtained AUC and PEAK values in the presence of compound were normalized to control values in the absence of compound. Using Origin (OridinLab), IC50 was derived from data fit to Hill equation: Icompound/Icontrol=(100−A)/(1+([compound]/IC50)nH)+A, where IC50 is the concentration at which current inhibition is half-maximal, [compound] is the applied compound concentration, A is the fraction of current that is not blocked and nH is the Hill coefficient.

For a further assay, the target named is T2, Kv1.3 potassium channel (Homo sapiens, UniProt P22001).
T2 construct: expressed in transfected cells
T2 sequence (P22001 whole entry): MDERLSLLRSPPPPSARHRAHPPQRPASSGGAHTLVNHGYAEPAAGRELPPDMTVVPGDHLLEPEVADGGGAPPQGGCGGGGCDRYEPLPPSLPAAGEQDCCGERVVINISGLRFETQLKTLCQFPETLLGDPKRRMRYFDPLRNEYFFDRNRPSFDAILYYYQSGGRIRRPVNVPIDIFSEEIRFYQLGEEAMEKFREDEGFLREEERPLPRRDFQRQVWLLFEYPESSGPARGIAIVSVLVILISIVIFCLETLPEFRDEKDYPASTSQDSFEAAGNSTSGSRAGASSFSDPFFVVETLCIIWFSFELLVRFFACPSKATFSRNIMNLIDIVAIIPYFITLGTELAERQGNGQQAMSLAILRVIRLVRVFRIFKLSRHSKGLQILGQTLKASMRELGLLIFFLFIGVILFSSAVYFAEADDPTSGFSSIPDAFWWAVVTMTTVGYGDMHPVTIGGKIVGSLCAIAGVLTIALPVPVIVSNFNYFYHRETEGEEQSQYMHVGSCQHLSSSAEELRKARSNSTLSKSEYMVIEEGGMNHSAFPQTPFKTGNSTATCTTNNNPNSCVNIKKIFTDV
Kind of assay: Kv1.3 potassium channel blocker activity, automated whole-cell patch clamp (Patchliner). The class given is cell-based. The settings on record: CHO-K1 cells stably expressing Kv1.3, whole cell current, pulses -90 mV to +40 mV, read-out: Kv1.3_IC50. How it is done:
Example 67. Evaluation of Kv1.3 Potassium Channel Blocker Activities
The assay described below is used to evaluate the disclosed compound's activities as Kv1.3 potassium channel blockers.
CHO-K1 cells stably expressing Kv1.3 were grown in DMEM containing 10% heat-inactivated FBS, 1 mM Sodium Pyruvate, 2 mM L-Glutamine and G418 (500 μg/ml). Cells were grown in culture flasks at 37° C. in a 5% CO2-humidified incubator.
as §1
The currents were evoked by applying 100 ms depolarizing pulses from −90 mV (holding potential) to +40 mV were applied with 0.1 Hz frequency. Control (compound-free) and compound pulse trains for each compound concentration applied contained 20 pulses. 10 second breaks were used between pulse trains (see Table 4 below).
Whole cell current recordings and compound application were enabled by means of an automated patch clamp platform Patchliner (Nanion Technologies GmbH). EPC 10 patch clamp amplifier (HIEKA Elektronik Dr. Schulze GmbH) along with Patchmaster software (HIEKA Elektronik Dr. Schulze GmbH) was used for data acquisition. Data were sampled at 10 kHz without filtering. Passive leak currents were subtracted online using a P/4 procedure (HEKA Elektronik Dr. Schulze GmbH). Increasing compound concentrations were applied consecutively to the same cell without washouts in between. Total compound incubation time before the next pulse train was not longer than 10 seconds. Peak current inhibition was observed during compound equilibration.
as §2, with “AUC and peak values were” for “AUC and PEAK values were”, “To determine IC50, the last” for “To determine IC50 the last”, “AUC and peak values in” for “AUC and PEAK values in”, “where IC50 value is the” for “where IC50 is the”

Where two headings read alike, the source gives them in different places.

T1 sequence (Q12809 whole entry): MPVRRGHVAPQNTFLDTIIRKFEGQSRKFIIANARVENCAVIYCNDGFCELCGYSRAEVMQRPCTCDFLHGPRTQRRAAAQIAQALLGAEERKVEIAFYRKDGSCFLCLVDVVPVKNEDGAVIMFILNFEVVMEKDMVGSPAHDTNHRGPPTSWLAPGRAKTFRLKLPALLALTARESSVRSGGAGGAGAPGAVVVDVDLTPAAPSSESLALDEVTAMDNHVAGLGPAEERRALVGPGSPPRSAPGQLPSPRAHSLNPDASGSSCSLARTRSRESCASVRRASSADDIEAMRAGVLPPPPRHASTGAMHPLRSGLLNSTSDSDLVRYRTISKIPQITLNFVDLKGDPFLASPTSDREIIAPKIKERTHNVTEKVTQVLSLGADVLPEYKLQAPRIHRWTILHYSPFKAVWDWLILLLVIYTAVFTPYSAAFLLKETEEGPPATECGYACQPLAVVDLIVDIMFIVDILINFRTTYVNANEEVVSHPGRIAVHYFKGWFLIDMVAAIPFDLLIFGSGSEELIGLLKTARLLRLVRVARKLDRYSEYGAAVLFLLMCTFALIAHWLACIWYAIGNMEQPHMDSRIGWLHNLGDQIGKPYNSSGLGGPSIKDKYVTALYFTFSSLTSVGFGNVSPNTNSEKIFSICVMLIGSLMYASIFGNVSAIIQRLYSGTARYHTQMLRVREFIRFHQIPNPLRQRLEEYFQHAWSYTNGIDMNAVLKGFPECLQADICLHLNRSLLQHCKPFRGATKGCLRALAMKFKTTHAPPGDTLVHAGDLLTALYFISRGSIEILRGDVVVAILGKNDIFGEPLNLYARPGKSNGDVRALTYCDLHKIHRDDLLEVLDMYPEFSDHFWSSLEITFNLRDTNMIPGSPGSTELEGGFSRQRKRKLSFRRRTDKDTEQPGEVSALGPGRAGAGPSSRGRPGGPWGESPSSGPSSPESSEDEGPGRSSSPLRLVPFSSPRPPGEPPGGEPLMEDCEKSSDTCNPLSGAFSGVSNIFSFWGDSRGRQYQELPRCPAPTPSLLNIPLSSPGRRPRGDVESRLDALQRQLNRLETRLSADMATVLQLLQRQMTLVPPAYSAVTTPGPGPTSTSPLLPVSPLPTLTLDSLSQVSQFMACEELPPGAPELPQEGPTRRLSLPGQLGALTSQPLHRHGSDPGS

For `O=C(NC(c1ccncc1)c1c(O)ccc(Cl)c1Cl)C1CNC1` (single isomer, unassigned) [Compound 50, N-[(2,3-dichloro-6-hydroxyphenyl)(pyridin-4-yl)methyl]azetidine-3-carboxamide], the results for the IC50 on hERG channel (Table 6) and on Kv1.3 potassium channel (Table 6) were above 30 µM and below 1 µM, respectively.

As for `NCc1cc(C(O)c2c(O)ccc(Cl)c2Cl)ccn1` (single isomer, unassigned) [Compound 53, 2-((2-(aminomethyl)pyridin-4-yl)(hydroxy)methyl)-3,4-dichlorophenol], the IC50 at hERG channel (Table 6) is above 30 µM; at Kv1.3 potassium channel (Table 6), below 1 µM.

With `O=C(N[C@H](c1ccncc1)c1c(O)ccc(Cl)c1Cl)[C@@H]1CCCN1` (single isomer, unassigned) [Compound 68], the IC50 is below 30 µM at hERG channel (Table 6) and below 1 µM on Kv1.3 potassium channel (Table 6).

Turning to `CC(NC(=O)C1CNC1)c1c(O)ccc(Br)c1Cl` (stereo in doubt) [Compound 91, N-[(1R)-1-3-bromo-2-chloro-6-hydroxyphenyl) ethyl]azetidine-3-carboxamide], the IC50 is above 30 µM at hERG channel (Table 7) and below 1 µM on Kv1.3 potassium channel (Table 7).

`Oc1cc(Cl)c(Cl)cc1Cc1ccncc1` [Compound 1, 2-[(pyridin-4-yl)methyl]-4,5-dichlorophenol]: the IC50 was above 30 µM on hERG channel (Table 6) and below 10 µM on Kv1.3 potassium channel (Table 6).

With `Nc1cc(Cc2cc(Cl)c(Cl)cc2O)ccn1` [Compound 2, 2-[(2-aminopyridin-4-yl)methyl]-4,5-dichlorophenol], the figures for the IC50 at hERG channel (Table 6) and on Kv1.3 potassium channel (Table 6) were below 30 µM and below 10 µM, respectively.

In the case of `NC(c1ccncc1)c1cc(Cl)c(Cl)cc1O` (stereo not drawn) [Compound 6, 2-[amino(pyridin-4-yl)methyl]-4,5-dichlorophenol], the IC50 at hERG channel (Table 6) is above 30 µM; at Kv1.3 potassium channel (Table 6), below 10 µM.

For the molecule `Nc1ccc(Cc2cc(Cl)c(Cl)cc2O)cn1` [Compound 8, 2-[(6-aminopyridin-3-yl)methyl]-4,5-dichlorophenol], the IC50 is below 30 µM on hERG channel (Table 6) and below 10 µM on Kv1.3 potassium channel (Table 6).

As for `Cc1cnccc1C(NC(=O)C1CNC1)c1c(O)ccc(Cl)c1Cl` (stereo not drawn) [Compound 9, N-[(2,3-dichloro-6-hydroxyphenyl)(3-methylpyridin-4-yl)methyl]azetidine-3-carboxamide], the results for the IC50 at hERG channel (Table 6) and on Kv1.3 potassium channel (Table 6) were above 30 µM and below 1 µM, respectively.

As to `NC(c1ccncc1)c1c(O)ccc(Cl)c1Cl` (stereo not drawn) [Compound 11, 2-[amino(pyridin-4-yl)methyl]-3,4-dichlorophenol], the figures for the IC50 at hERG channel (Table 6) and at Kv1.3 potassium channel (Table 6) were above 30 µM and below 10 µM, respectively.

Take `NC(c1ccncc1)c1c(O)ccc2ccccc12` (stereo not drawn) [Compound 17, 1-[amino(pyridin-4-yl)methyl]naphthalen-2-ol]: the IC50 is below 30 µM at hERG channel (Table 6) and below 10 µM on Kv1.3 potassium channel (Table 6).

Regarding `CC(=O)CC(c1ccncc1)c1c(O)ccc2ccccc12` (stereo not drawn) [Compound 18], the IC50 at hERG channel (Table 6) was above 30 µM; at Kv1.3 potassium channel (Table 6), below 10 µM.

Regarding `CC(=O)NC(c1ccncc1)c1c(O)ccc(Cl)c1Cl` (stereo not drawn) [Compound 20, N-[(2,3-dichloro-6-hydroxyphenyl)(pyridin-4-yl)methyl]acetamide], the IC50 at hERG channel (Table 6) was above 30 µM; at Kv1.3 potassium channel (Table 6) it was below 1 µM.

Regarding `NC(c1ccc2c(c1)CNC2)c1cc(Cl)c(Cl)cc1O` (stereo not drawn) [Compound 21, 2-[amino(2,3-dihydro-1H-isoindol-5-yl)methyl]-4,5-dichlorophenol], the IC50 at hERG channel (Table 6) was below 30 µM; on Kv1.3 potassium channel (Table 6), below 1 µM.

Regarding `O=C(NC(c1ccncc1)c1cc(Cl)c(Cl)cc1O)C1CNC1` (stereo not drawn) [Compound 26, N-[(4,5-dichloro-2-hydroxyphenyl)(pyridin-4-yl)methyl]azetidine-3-carboxamide], the IC50 at hERG channel (Table 6) was above 30 µM; at Kv1.3 potassium channel (Table 6), below 1 µM.

On to `Oc1cc(Cl)c(Cl)cc1C(O)c1ccncc1` (stereo not drawn) [Compound 27, 4,5-dichloro-2-[hydroxy(pyridin-4-yl)methyl]phenol], for which the IC50 on hERG channel (Table 6) was above 30 µM; on Kv1.3 potassium channel (Table 6), below 10 µM.

In the case of `NCc1cc(C(O)c2c(O)ccc(Cl)c2Cl)ccn1` (stereo not drawn) [Compound 28, 2-[[2-(aminomethyl)pyridin-4-yl](hydroxy)methyl]-3,4-dichlorophenol], the IC50 is above 30 µM at hERG channel (Table 6) and below 1 µM at Kv1.3 potassium channel (Table 6).

Turning to `Oc1ccc(Cl)c(Cl)c1C(O)c1ccncc1` (stereo not drawn) [Compound 29, 3,4-dichloro-2-[hydroxy(pyridin-4-yl)methyl]phenol], the figures for the IC50 on hERG channel (Table 6) and at Kv1.3 potassium channel (Table 6) were above 30 µM and below 1 µM, respectively.

As for `Oc1ccc(Cl)c(Cl)c1C(O)c1cccnc1` (stereo not drawn) [Compound 31, 3,4-dichloro-2-[hydroxy(pyridin-3-yl)methyl]phenol], the IC50 was above 30 µM on hERG channel (Table 6) and below 1 µM at Kv1.3 potassium channel (Table 6).

For `Nc1cc(C(O)c2c(O)ccc(Cl)c2Cl)ccn1` (stereo not drawn) [Compound 36, 2-[(2-aminopyridin-4-yl)(hydroxy)methyl]-3,4-dichlorophenol], the figures for the IC50 at hERG channel (Table 6) and at Kv1.3 potassium channel (Table 6) were above 30 µM and below 1 µM, respectively.

With `Cc1cnccc1C(O)c1c(O)ccc(Cl)c1Cl` (stereo not drawn) [Compound 39, 3,4-dichloro-2-[hydroxy(3-methylpyridin-4-yl)methyl]phenol], the IC50 at hERG channel (Table 6) was above 30 µM; at Kv1.3 potassium channel (Table 6), below 1 µM.

In the case of `Nc1ccc(C(O)c2c(O)ccc(Cl)c2Cl)cn1` (stereo not drawn) [Compound 40, 2-[(6-aminopyridin-3-yl)(hydroxy)methyl]-3,4-dichlorophenol], the IC50 on hERG channel (Table 6) is below 30 µM; at Kv1.3 potassium channel (Table 6) it was below 1 µM.

As for `O=C(NC(c1ccncc1)c1c(O)ccc(Cl)c1Cl)C1CNC1` (stereo not drawn) [Compound 42, N-[(2,3-dichloro-6-hydroxyphenyl)(pyridin-4-yl)methyl]azetidine-3-carboxamide], the IC50 on hERG channel (Table 6) was above 30 µM; on Kv1.3 potassium channel (Table 6), below 1 µM.

For `NC(=O)c1ccc(C(O)c2c(O)ccc(Cl)c2Cl)cc1` (stereo not drawn) [Compound 64, 4-[(2,3-dichloro-6-hydroxyphenyl)(hydroxy)methyl]benzamide], the IC50 was above 30 µM on hERG channel (Table 6) and below 1 µM at Kv1.3 potassium channel (Table 6).

For the molecule `CN1CC(C(=O)NC(c2ccncc2)c2c(O)ccc(Cl)c2Cl)C1` (stereo not drawn) [Compound 73, N-[(2,3-dichloro-6-hydroxyphenyl)(pyridin-4-yl)methyl]-1-methylazetidine-3-carboxamide], the values for the IC50 at hERG channel (Table 6) and on Kv1.3 potassium channel (Table 6) were above 30 µM and below 1 µM, respectively.

For the molecule `C[C@H](NC(=O)C1CNC1)c1c(O)ccc(Cl)c1Cl` [Compound 76, N-[(1S)-1-(2,3-dichloro-6-hydroxyphenyl)ethyl]azetidine-3-carboxamide], the IC50 was above 30 µM at hERG channel (Table 7) and below 1 µM at Kv1.3 potassium channel (Table 7).

Regarding `C[C@@H](NC(=O)[C@H]1CCCNC1)c1c(O)ccc(Cl)c1Cl` [Compound 78, (3S)-N-[(1R)-1-(2,3-dichloro-6-hydroxyphenyl)ethyl]piperidine-3-carboxamide], the IC50 at hERG channel (Table 7) is above 30 µM; at Kv1.3 potassium channel (Table 7), below 1 µM.
